In brackets after ≈: the same amount, converted by molar mass. Structures can show the parent of a compound that is named as a salt. Where two headings read alike, the source gives them in different places.
Tests used:
Assay in all cases: MIC, serial two-fold agar dilution (Table 1)
Assay type in all cases: cell-based
[1] = test system: E. cloacae A9656; conditions: Enterobacter cloacae, Mueller-Hinton agar
Method: (§1) Minimum inhibitory concentrations (MIC) of BB-S 651, BB-S 669 and BB-S 676 were determined by serial two-fold agar dilution method using Steers' apparatus on Mueller-Hinton agar plate against 15 test organisms for primary screening as shown in Table 1.

[2] = test system: E. coli A15148; conditions: Escherichia coli; E. coli A15148, cephalothin-resistant; Mueller-Hinton agar
Method: as §1

[3] = test system: E. coli A15164; conditions: Escherichia coli; E. coli A15164, cephalothin-resistant; Mueller-Hinton agar
Method: as §1

[4] = test system: E. coli A9660; conditions: Escherichia coli; E. coli A9660, cephalothin-sensitive; Mueller-Hinton agar
Method: as §1

[5] = test system: E. coli Juhl A15119; conditions: Escherichia coli, JUHLA15119; E. coli Juhl A15119, cephalothin-sensitive; Mueller-Hinton agar
Method: as §1

[6] = test system: Ps. aeruginosa A15150; conditions: Pseudomonas aeruginosa, Mueller-Hinton agar
Method: as §1

[7] = test system: Ps. aeruginosa A20229; conditions: Pseudomonas aeruginosa, Mueller-Hinton agar
Method: as §1

[8] = test system: Ps. aeruginosa A20717; conditions: Pseudomonas aeruginosa, Mueller-Hinton agar
Method: as §1

[9] = test system: Ps. aeruginosa A20718; conditions: Pseudomonas aeruginosa, Mueller-Hinton agar
Method: as §1

[10] = test system: Ps. aeruginosa A9843; conditions: Pseudomonas aeruginosa, Mueller-Hinton agar
Method: as §1

[11] = test system: S. aureus #193; conditions: Staphylococcus aureus
Method: as §1

[12] = test system: S. aureus 209P A9497; conditions: Staphylococcus aureus
Method: as §1

[13] = test system: S. aureus BX-1633-2 A9606; conditions: Staphylococcus aureus, BX16332A9606
Method: as §1

[14] = test system: S. aureus Smith A9537; conditions: Staphylococcus aureus, SMITHA9537, Mueller-Hinton agar
Method: as §1

[15] = test system: S. marcescens A20019; conditions: Serratia marcescens, Mueller-Hinton agar
Method: as §1

[16] = S. aureus #193, penicillinase-producing, Mueller-Hinton agar, read-out: MIC
[17] = S. aureus 209P A9497, Mueller-Hinton agar, read-out: MIC
[18] = S. aureus BX-1633-2 A9606, penicillinase-producing, Mueller-Hinton agar, read-out: MIC

Compound | MIC [1] [µg/mL] | MIC [2] [µg/mL] | MIC [3] [µg/mL] | MIC [4] [µg/mL] | MIC [5] [µg/mL] | MIC [6] [µg/mL] | MIC [7] [µg/mL] | MIC [8] [µg/mL] | MIC [9] [µg/mL] | MIC [10] [µg/mL] | MIC [11, 16] [µg/mL] | MIC [12, 17] [µg/mL] | MIC [13, 18] [µg/mL] | MIC [14] [µg/mL] | MIC [15] [µg/mL] | MIC [11] [µg/mL] | MIC [13] [µg/mL] | MIC ([12]; 209P) [µg/mL]
CN(C)Cc1ccc[n+](CC2=C(C(=O)[O-])N3C(=O)C(NC(=O)[C@H](NC(=O)c4cnc5cccnc5c4O)c4ccccc4)C3SC2)c1 (stereo partly drawn) [BB-S 676, 7-[D-α-(4-Hydroxy-1,5-naphthyridine-3-carboxamido)α-phenylacetamido]-3-(3-N,N-dimethylaminomethylpyridinium)methyl-3-cephem-4-carboxylateHydrochloride] | 50 | 6.3 | 50 | 3.1 | 12.5 | 1.6 | 3.1 | 6.3 | 1.6 | 3.1 | 6.3 | 1.6 | 6.3 | 3.1 | 50 | – | – | –
CC1(C)S[C@@H]2[C@H](NC(=O)C(C(=O)O)c3ccccc3)C(=O)N2[C@H]1C(=O)O (stereo partly drawn) [Carbenicillin, reference compound] | 3.1 (≈ 8.19 µM) | 3.1 (≈ 8.19 µM) | 6.3 (≈ 16.6 µM) | 0.8 (≈ 2.11 µM) | 3.1 (≈ 8.19 µM) | 25 (≈ 66.1 µM) | 50 (≈ 132 µM) | > 100 | 25 (≈ 66.1 µM) | 50 (≈ 132 µM) | – | 0.2 (≈ 0.529 µM) | – | 0.2 (≈ 0.529 µM) | 3.1 (≈ 8.19 µM) | 12.5 (≈ 33 µM) | 12.5 (≈ 33 µM) | –
CN(C)Cc1cc[n+](CC2=C(C(=O)[O-])N3C(=O)C(NC(=O)[C@H](NC(=O)c4cnc5cccnc5c4O)c4ccc(O)cc4)C3SC2)cc1 (stereo partly drawn) [BB-S 669, 7-[D-α-(4-Hydroxy-1,5-naphthyridine-3-carboxamido)-α-(4-hydroxyphenyl)acetamido]-3-(4-N,N-dimethylaminomethylpyridinium)methyl-3-cephem-4-carboxylate Hydrochloride] | 3.1 | 0.8 | 6.3 | 0.8 | 1.6 | 0.8 | 1.6 | 3.1 | 0.8 | 1.6 | 25 | – | 25 | 6.3 | 12.5 | – | – | 3.1

Reference: US4288590A, “7 -[Dα-(4-Hydroxy-1,5-naphthyridine-3-carboxamido)-α-arylacetam ido]-3-(N,N-dimethyl-aminomethylpyridinium) methyl-3-cephem-4-carboxylates” (Bristol-Myers Company, priority 1980, dated 1981)
